Reference: patent publication US8669254B2, “Pyridine, pyridazine, pyrimidine or pyrazine carboxamides as HDL-cholesterol raising agents” (Hoffman-La Roche Inc., priority 2010, dated 2014)
Like-named read-outs stand apart in the source and are kept apart here.

Key:
ABCA1 protein = test: Detection of upregulation of ABCA1 protein in cells (ApoA-I binding, high content image analysis); format: cell-based; details: THP-1 macrophage cells; for % increase of ABCA1 at 3 μM: compound at 3 μM, 24 hrs; for EC50: ABCA1 protein detection assay
Experimental: The ability of compounds of the invention to increase the level of ABCA1 protein is determined in replicate cultures of THP-1 macrophage cells in 96-well microplates. Cells are plated at an initial density of 100,000 cells/well in 100 μl medium and differentiated to adherent macrophages with the addition of PMA (100 nM) for 68 hrs in 10% fetal bovine serum, 3 μl/L of b-mercaptoethanol, RPMI-1640 medium. Then, cells are incubated with RPMI-1640 medium containing 1% FCS, 25 μg/ml acetylated LDL, for 24 hours at 37°. Following incubation with acetylated LDL, cells are washed twice with 50 μl PBS and incubated with 100 μl of RPMI-1640 medium containing the compound of interest solubilized in DMSO for an additional 24 hrs. The final DMSO concentration in presence of cells is maintained at 0.5%. ApoA-I binding assay using High Content Image Analysis is initiated by replacing with fresh medium, RPMI without Phenol Red, 0.2% BSA containing AlexaFluor®647 labeled ApoA-I for 2 h/37° C./5% CO2. Then, cells are fixed with 4% Formaldehyde in PBS (15 min, RT). Following Nuclei are stained with Hoechst solution (3 μM PBS) and Cytoplasm with Cell Mask Blue (2 μg/ml PBS), 15 min, RT. Finally the stained cells are fixed with a second round of formaldehyde treatment. Fixed stained cells are washed and kept in PBS at 4° C. and can be read immediately until one month after preparation.
The Alexa Fluor 647-labeled Apolipoprotein A-I (20 nM) was prepared as follows: Human recombinant Apolipoprotein A-I (ApoA-I) was exchanged to a buffer of 0.02 M NaHCO3 at pH 8.2 on an NAP desalting column (GE Healthcare) and brought to a concentration to 40 μM (1.13 mg/ml) by adjustment with the same buffer. The ApoA-I was fluorescently labeled by incubation with Alexa Fluor carboxylic acid succimidyl ester (Alexa Fluor 647, Invitrogen A-20006) at a 2:1 molar ratio (Alexa to ApoA-I) for 1 h under shaking at RT). The remaining unconjugated label was removed by buffer exchange to 0.02M NaHCO3 at pH 8.2.
Imaging and data collection were performed on an OPERA confocal microplate imaging reader using a 20× water immersion objective and UV360 or 405 laser to identify the cell nuclei and a 635 laser to identify the fluorescent ApoA-I. Eight fields of view are captured per well. Image capture and analysis was performed with the Acapella software. Background fluorescence detected in control wells without ApoA-I was subtracted.
Using XLfit3 program (ID Business Solutions Ltd. UK), the model 205 for Dose Response One Site is used to calculate the EC50 values. […] Particularly, the compounds of the present invention have EC50 values in a range of 0.1 μM to 3 μM.

human CB1 receptor = molecular target: T1, human CB1 receptor (Homo sapiens, UniProt P21554); test: CB1 receptor affinity ([3H]-CP-55,940 displacement); format: binding; details: read-out: CB1 receptor affinity [% inhibition @ 10 μM]
T1 construct: expressed in transfected cells; host or cells: human embryonic kidney (HEK) cells, Semliki Forest Virus system, membrane preparation
Experimental: (§1) The affinity of the compounds of the invention for cannabinoid receptors was determined using membrane preparations of human embryonic kidney (HEK) cells in which the human CB1 receptor is transiently transfected using a Semliki Forest Virus system in conjunction with [3H]-CP-55,940 as radioligand. After incubation of freshly prepared cell membrane preparation with the [^3H]-ligand, with or without addition of compounds of the invention, separation of bound and free ligand was performed by filtration over glass fiber filters. Radioactivity on the filter was measured by scintillation counting.
(§2) The ability of the compounds to displace the radioligand [^3H]-CP-55,940 was measured at a concentration of 10 μM and values provided as [% inhibition @ 10 μM] both for the CB 1 and CB2 receptor assay, The lower % inhibition is, the lower the likelihood of side effects based on CB1 or CB2 receptor inhibition is.

human CB2 receptor = molecular target: T2, human CB2 receptor (Homo sapiens, UniProt P34972); test: CB2 receptor affinity ([3H]-CP-55,940 displacement); format: binding; details: HEK cell membranes, radioligand [3H]-CP-55,940
T2 construct: expressed in transfected cells; host or cells: human embryonic kidney (HEK) cells, Semliki Forest Virus system, membrane preparation
Experimental: as §1, with “cannabinoid CB2” for “cannabinoid”, “CB2” for “CB1”, “[^3H]-CP-55,940” for “[3H]-CP-55,940”
as §2

[1] = 10 μM, HEK cell membranes, radioligand [3H]-CP-55,940

T1 sequence (P21554 whole entry): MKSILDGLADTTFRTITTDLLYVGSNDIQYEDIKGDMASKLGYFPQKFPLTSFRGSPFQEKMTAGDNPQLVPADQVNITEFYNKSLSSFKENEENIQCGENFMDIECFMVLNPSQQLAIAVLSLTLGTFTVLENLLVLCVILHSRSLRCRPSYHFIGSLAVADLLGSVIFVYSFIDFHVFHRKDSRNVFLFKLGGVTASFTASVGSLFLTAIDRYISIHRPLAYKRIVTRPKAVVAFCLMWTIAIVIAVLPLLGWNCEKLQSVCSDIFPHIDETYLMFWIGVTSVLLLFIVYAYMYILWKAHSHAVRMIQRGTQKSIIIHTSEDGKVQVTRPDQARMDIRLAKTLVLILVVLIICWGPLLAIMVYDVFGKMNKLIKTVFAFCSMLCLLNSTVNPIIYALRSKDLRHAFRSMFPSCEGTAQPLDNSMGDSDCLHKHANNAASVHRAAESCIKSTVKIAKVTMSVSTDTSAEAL
T2 sequence (P34972 whole entry): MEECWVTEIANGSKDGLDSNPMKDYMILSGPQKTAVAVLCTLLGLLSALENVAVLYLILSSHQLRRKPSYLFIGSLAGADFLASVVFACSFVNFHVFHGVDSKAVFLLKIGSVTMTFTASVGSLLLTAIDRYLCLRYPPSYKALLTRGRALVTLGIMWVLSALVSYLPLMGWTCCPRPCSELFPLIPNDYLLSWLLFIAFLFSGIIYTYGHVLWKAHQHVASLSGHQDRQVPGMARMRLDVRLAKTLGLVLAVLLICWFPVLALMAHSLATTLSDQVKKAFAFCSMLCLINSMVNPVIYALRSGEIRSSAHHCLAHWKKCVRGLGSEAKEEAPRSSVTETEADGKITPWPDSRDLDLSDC

Row | SMILES | % increase of ABCA1 at 3 μM (ABCA1 protein) [% @ 3 μM] | inhibition at 10 µM (human CB1 receptor; [1]) [%] | inhibition at 10 µM (human CB2 receptor) [%] | melting point [°C] | EC50 (ABCA1 protein) [nM] | inhibition at 10 µM (human CB1 receptor) [%]
1 | CO/N=C1\CCCC[C@@H]1NC(=O)c1cc(-c2ccc(Cl)c(Cl)c2)c(OCC(F)(F)F)nn1 [Example 24, 5-(3,4-Dichloro-phenyl)-6-(2,2,2-trifluoro-ethoxy)-pyridazine-3-carboxylic acid {(S)-2-[(E)-methoxyimino]-cyclohexyl}-amide] | 85 | 22 | 31 | 106 to 109 |  | 
2 | CO/N=C(/CNC(=O)c1cnc(O[C@@H](C)C(F)(F)F)c(-c2ccc(Cl)cc2)n1)C1CC1 [Example 26, (S,E)-6-(4-Chlorophenyl)-N-(2-cyclopropyl-2-(methoxyimino)ethyl)-5-(1,1,1-trifluoropropan-2-yloxy)pyrazine-2-carboxamide] | 79 | 13 | 9 | 149 to 152 | 1120 | 
3 | CO/N=C(/CNC(=O)c1cc(-c2ccc(Cl)c(Cl)c2)c(OCC(F)(F)F)nn1)C1CC1 [Example 23, (E)-N-(2-cyclopropyl-2-(methoxyimino)ethyl)-5-(3,4-dichlorophenyl)-6-(2,2,2-trifluoroethoxy)pyridazine-3-carboxamide] | 88 | -2 | 14 | 147 to 150 | 540 | 
4 | CO/N=C1\CCCC[C@@H]1NC(=O)c1cnc(O[C@@H](C)C(F)(F)F)c(-c2ccc(Cl)cc2)c1 [Example 30, 5-(4-Chlorophenyl)-N-((S,E)-2-(methoxyimino)cyclohexyl)-6-((S)-1,1,1-trifluoropropan-2-yloxy)nicotinamide] | 91.3 | 24.1 | 12.7 | 119 to 121 | 180 | 
5 | COCO/N=C1\CCCC[C@@H]1NC(=O)c1cnc(OCC2CC2)c(-c2ccc(Cl)cc2)c1 [Example 6, 5-(4-Chloro-phenyl)-6-cyclopropylmethoxy-N-{(S)-2-[(E)-methoxymethoxyimino]-cyclohexyl}-nicotinamide] | 71.9 | 36.7 | 19.2 |  |  | 
6 | CO/N=C1\CCCC[C@@H]1NC(=O)c1cnc(OCC2CC2)c(-c2ccc(Cl)cc2)c1 [Example 1, 5-(4-Chloro-phenyl)-6-cyclopropylmethoxy-N-{(S)-2-[(E)-methoxyimino]-cyclohexyl}-nicotinamide] | 87.2 |  | 17.2 |  | 700 | 34
7 | CC(C)O/N=C1\CCCC[C@@H]1NC(=O)c1cnc(OCC2CC2)c(-c2ccc(Cl)cc2)c1 [Example 3, 5-(4-Chloro-phenyl)-6-cyclopropylmethoxy-N-{(S)-2-[(E)-isopropoxyimino]-cyclohexyl}-nicotinamide] | 66.4 | 45.7 | 6.86 |  |  | 
8 | CO/N=C(/CNC(=O)c1cc(-c2ccc(Cl)cc2)c(O[C@@H](C)C(F)(F)F)nn1)C1CC1 [Example 25, (S,E)-5-(4-Chlorophenyl)-N-(2-cyclopropyl-2-(methoxyimino)ethyl)-6-(1,1,1-trifluoropropan-2-yloxy)pyridazine-3-carboxamide] | 61 | 39 | 29 |  |  | 
9 | CO/N=C1\CCCC[C@@H]1NC(=O)c1cc(-c2ccc(Cl)cc2)c(OCC2CC2)nn1 [Example 18, 5-(4-Chloro-phenyl)-6-cyclopropylmethoxy-pyridazine-3-carboxylic acid {(S)-2-[(E)-methoxyimino]-cyclohexyl}-amide] | 57.3 | 26.9 | 32.5 |  | 4990 | 
10 | CO/N=C(\CNC(=O)c1cnc(OCC(F)(F)F)c(-c2ccc(Cl)cc2)c1)C1CC1 [Example 13, 5-(4-Chloro-phenyl)-N-{2-cyclopropyl-2-[(Z)-methoxyimino]-ethyl}-6-(2,2,2-trifluoro-ethoxy)-nicotinamide] | 66.2 | 48.6 | 1.52 |  |  | 
11 | CO/N=C(/CNC(=O)c1ncc(OCC2CC2)c(-c2ccc(Cl)cc2)n1)C1CC1 [Example 20, 4-(4-chloro-phenyl)-5-cyclopropylmethoxy-pyrimidine-2-carboxylic acid {2-cyclopropyl-2-[(E)-methoxyimino]-ethyl}-amide] | 87.03 | 28.8 | 71.7 |  |  | 
12 | CO/N=C1\CCCC[C@@H]1NC(=O)c1cnc(OCC(F)(F)F)c(-c2ccc(Cl)cc2)c1 [Example 2, 5-(4-Chloro-phenyl)-N-{(S)-2-[(E)-methoxyimino]-cyclohexyl}-6-(2,2,2-trifluoro-ethoxy)-nicotinamide] | 88.3 | 30.8 | 3.53 |  | 1820 | 
13 | CO/N=C1\CCCC[C@@H]1NC(=O)c1ccc(OCC(F)(F)F)c(-c2ccc(Cl)cc2)n1 [Example 10, 6-(4-Chloro-phenyl)-5-(2,2,2-trifluoro-ethoxy)-pyridine-2-carboxylic acid {(S)-2-[(E)-methoxyimino]-cyclohexyl}-amide] | 45.6 | 0.74 | 19.2 |  | 1530 | 
14 | O=C(N[C@H]1CCCC/C1=N\OCC(F)(F)F)c1cnc(OCC2CC2)c(-c2ccc(Cl)cc2)c1 [Example 4, 5-(4-Chloro-phenyl)-6-cyclopropylmethoxy-N-{(S)-2-[(E)-2,2,2-trifluoro-ethoxyimino]-cyclohexyl}-nicotinamide] | 90.4 | 48.5 | 8.91 |  |  | 
15 | CO/N=C1\CCCC[C@H]1NC(=O)c1cc(-c2ccc(Cl)cc2)c(OCC(F)(F)F)nn1 [Example 16, 5-(4-Chloro-phenyl)-6-(2,2,2-trifluoro-ethoxy)-pyridazine-3-carboxylic acid {(R)-2-[(E)-methoxyimino]-cyclohexyl}-amide] | 55.3 | 25.4 | 16.6 |  | 10000 | 
16 | CO/N=C(/CNC(=O)c1ccc(OCC(F)(F)F)c(-c2ccc(Cl)cc2)n1)C(F)(F)F [Example 21, 6-(4-Chloro-phenyl)-5-(2,2,2-trifluoro-ethoxy)-pyridine-2-carboxylic acid {3,3,3-trifluoro-2-[(Z)-methoxyimino]-propyl}-amide] | 50 | 41 | 31 |  |  | 
17 | O=C(NC/C(=N/O)C1CC1)c1cnc(OCC(F)(F)F)c(-c2ccc(Cl)c(Cl)c2)c1 [Example 11, N-(E)-(2-Cyclopropyl-2-hydroxyimino-ethyl)-5-(3,4-dichloro-phenyl)-6-(2,2,2-trifluoro-ethoxy)-nicotinamide] | 55.9 | 30 | 44.3 |  |  | 
